Experimental data: ChEMBL document CHEMBL3864164, “II. Discovery of a novel series of CXCR3 antagonists with a beta amino acid core” (Bioorg Med Chem Lett, 2016)
Converted amounts (≈) assume the structure as drawn.

Assays:
[1] = Solubility of the compound at pH 1.1 to 7.4; assay type: physicochemical; settings: buffer
[2] = Drug degradation in solid phase after few months; assay type: physicochemical; settings: read-out: Drug degradation
[3] = Absolute oral bioavailability in Balb/c mouse at 10 mg/kg; assay type: ADME, organism-based; settings: in vivo

Structure (SMILES)	solubility [1] [µM]	degraded [2] [%]	bioavailability [3] [%]
CCCN(Cc1ccc(OCCn2c(=O)ccn(C)c2=O)c(OC)c1)C(CC(=O)O)c1ccc2c(c1)CCO2 (configuration not stated)	3000 (≈ 1610 µg/mL)	5 to 7	
COc1cc(CN(CC2CCCC2)[C@@H](CC(=O)O)c2ccc(Cl)c(F)c2)ccc1OCCN1C(=O)CCC1=O	3000 (≈ 1680 µg/mL)	5 to 7	
Cc1cc(CN(C2CCC2)C(CC(=O)O)c2ccc(Cl)cc2)ccc1OCCn1c(=O)ccn(C)c1=O (configuration not stated)	3000 (≈ 1580 µg/mL)	5 to 7	
Cl.O=C(O)C[C@@H](c1ccc(Cl)c(Cl)c1)N(Cc1ccc(OCCN2C(=O)CCC2=O)c(F)c1)CC1CC1	3000	5 to 7	64
Cc1cc(CN(CC2CC2)C(CC(=O)O)c2ccc(Cl)cc2)ccc1OCCn1c(=O)ccn(C)c1=O (configuration not stated)	3000 (≈ 1580 µg/mL)	5 to 7	
CCCN(Cc1ccc(OCCN2C(=O)CCC2=O)c(OC)c1)C(CC)c1ccc(Cl)c(C(=O)O)c1 (configuration not stated)	3000 (≈ 1550 µg/mL)	5 to 7	
Cc1cc(CN(CC2CCCC2)C(CC(=O)O)c2ccc(Cl)cc2)ccc1OCCN1C(=O)CCC1=O (configuration not stated)	3000 (≈ 1580 µg/mL)	5 to 7	
CCCN(Cc1ccc(OCCN2C(=O)CCC2=O)c(C)c1)[C@@H](CC(=O)O)c1ccc(Cl)cc1	3000 (≈ 1460 µg/mL)	5 to 7	
Cc1cc(CN(CC(C)C)C(CC(=O)O)c2ccc(Cl)cc2Cl)ccc1OCCN1C(=O)CCC1=O (configuration not stated)	3000 (≈ 1610 µg/mL)	5 to 7	
Cc1cc(CN(CC(C)C)[C@@H](CC(=O)O)c2ccc(Cl)c(F)c2)ccc1OCCN1C(=O)CCC1=O.Cl	3000	5 to 7	
COc1cc(CN(CC(C)C)[C@@H](CC(=O)O)c2ccc(Cl)cc2)ccc1OCCn1c(=O)ccn(C)c1=O	3000 (≈ 1630 µg/mL)	5 to 7	
Cc1cc(CN(C2CCC2)C(CC(=O)O)c2ccc(Cl)cc2)ccc1OCCN1C(=O)CCC1=O (configuration not stated)	3000 (≈ 1500 µg/mL)	5 to 7	
COc1cc(CN(CC(C)C)C(CC(=O)O)c2ccc(Cl)c(Cl)c2)ccc1OCCN1C(=O)CCC1=O (configuration not stated)	3000 (≈ 1650 µg/mL)	5 to 7	
CCCN(Cc1ccc(OCCN2C(=O)CCC2=O)c(C)c1)C1c2ccc(Cl)cc2CC1C(=O)O (configuration not stated)	3000 (≈ 1500 µg/mL)	5 to 7	
Cl.O=C(O)C[C@@H](c1ccc(Cl)c(F)c1)N(Cc1ccc(OCCN2C(=O)CCC2=O)c(Cl)c1)CC1CC1	3000	5 to 7	35
CCN(Cc1ccc(OCCn2c(=O)ccn(C)c2=O)c(OC)c1)C(CC(=O)O)c1ccc(Cl)cc1 (configuration not stated)	3000 (≈ 1550 µg/mL)	5 to 7	
Cc1cc(CN(CCC(F)(F)F)C(CC(=O)O)c2ccc(Cl)cc2)ccc1OCCN1C(=O)CCC1=O (configuration not stated)	3000 (≈ 1620 µg/mL)	5 to 7	
Cc1cc(CN(CC2CC2)[C@@H](CC(=O)O)c2ccc(Cl)cc2)ccc1OCCN1C(=O)CCC1=O	3000 (≈ 1500 µg/mL)	5 to 7	
COc1cc(CN(CC2CC2)C(CC(=O)O)c2ccc(Cl)cc2)ccc1OCCn1c(=O)ccn(C)c1=O (configuration not stated)	3000 (≈ 1630 µg/mL)	5 to 7	

Structure (SMILES)	solubility [1] [µM]	degraded [2] [%]	bioavailability [3] [%]
COc1cc(CN(CC2CC2)[C@@H](CC(=O)O)c2ccc(Cl)c(F)c2)ccc1OCCN1C(=O)CCC1=O.Cl	3000	5 to 7	5.4
Cc1cc(CN(CC(C)C)C(CC(=O)O)c2ccc(Cl)cc2)ccc1OCCN1C(=O)CCC1=O (configuration not stated)	3000 (≈ 1500 µg/mL)	5 to 7	
CCCN(Cc1ccc(OCCN2C(=O)CCC2=O)c(C)c1)C(c1ccc(Cl)cc1)C1(C(=O)O)CC1 (configuration not stated)	3000 (≈ 1540 µg/mL)	5 to 7	
COc1cc(CN(CC(C)C)C(CC(=O)O)c2ccc3c(c2)CCO3)ccc1OCCN1C(=O)CCC1=O (configuration not stated)	3000 (≈ 1570 µg/mL)	5 to 7	
Cc1cc(CN(CC(C)C)C(CC(=O)O)c2ccc(Cl)c(F)c2)ccc1OCCN1C(=O)CCC1=O (configuration not stated)	3000 (≈ 1560 µg/mL)	5 to 7	
C[C@@H](c1ccc(Cl)cc1)N(Cc1ccc(OCCN2C(=O)CCC2=O)c(C(=O)O)c1)CC1CCCC1	3000 (≈ 1540 µg/mL)	5 to 7	
Cc1cc(CN(C)C(CC(=O)O)c2ccc(Cl)cc2)ccc1OCCn1c(=O)ccn(C)c1=O (configuration not stated)	3000 (≈ 1460 µg/mL)	5 to 7	
COc1cc(CN(CC(C)C)C(CC(=O)O)c2ccc3c(c2)CCO3)ccc1OCCn1c(=O)ccn(C)c1=O (configuration not stated)	3000 (≈ 1650 µg/mL)	5 to 7	
CCCN(Cc1ccc(OCCn2c(=O)ccn(C)c2=O)c(C)c1)C(CC(=O)O)c1ccc(Cl)cc1 (configuration not stated)	3000 (≈ 1540 µg/mL)	5 to 7	
Cc1cc(CN(CC2CCCC2)[C@@H](CC(=O)O)c2ccc(Cl)cc2)ccc1OCCN1C(=O)CCC1=O	3000 (≈ 1580 µg/mL)	5 to 7	14
CCCN(Cc1ccc(OCCN2C(=O)CCC2=O)c(C)c1)C(CC(=O)O)c1ccc(Cl)cc1 (configuration not stated)	3000 (≈ 1460 µg/mL)	5 to 7	
COc1cc(CN(CC(C)C)C(CC(=O)O)c2ccc(Cl)c(F)c2)ccc1OCCN1C(=O)CCC1=O (configuration not stated)	3000 (≈ 1610 µg/mL)	5 to 7	
CCCCN(Cc1ccc(OCCN2C(=O)CCC2=O)c(C)c1)C(CC(=O)O)c1ccc(Cl)cc1 (configuration not stated)	3000 (≈ 1500 µg/mL)	5 to 7	
Cc1cc(CN(CC2CCCC2)[C@@H](CC(=O)O)c2ccc(Cl)c(F)c2)ccc1OCCN1C(=O)CCC1=O.Cl	3000	5 to 7	
CCCN(Cc1ccc(OCCN2C(=O)CCC2=O)c(OC)c1)C(C(=O)O)c1ccc(Cl)cc1 (configuration not stated)	3000 (≈ 1470 µg/mL)	5 to 7	
COc1cc(CN(CC(C)C)C(CC(=O)O)c2ccc(Cl)cc2)ccc1OCCn1c(=O)ccn(C)c1=O (configuration not stated)	3000 (≈ 1630 µg/mL)	5 to 7	
COc1cc(CN(CC(C)C)[C@H](CC(=O)O)c2ccc(Cl)cc2)ccc1OCCn1c(=O)ccn(C)c1=O	3000 (≈ 1630 µg/mL)	5 to 7	
CCc1cc(CN(CC2CCCC2)[C@@H](CC(=O)O)c2ccc(Cl)cc2)ccc1OCCN1C(=O)CCC1=O	3000 (≈ 1620 µg/mL)	5 to 7	
Cc1cc(CN(CC2CCCCC2)C(CC(=O)O)c2ccc(Cl)cc2)ccc1OCCN1C(=O)CCC1=O (configuration not stated)	3000 (≈ 1620 µg/mL)	5 to 7	

Structure (SMILES)	solubility [1] [µM]	degraded [2] [%]	bioavailability [3] [%]
COc1cc(CN(CC(C)C)C(CC(=O)O)c2ccc(Cl)cc2)ccc1OCCN1C(=O)CCC1=O (configuration not stated)	3000 (≈ 1550 µg/mL)	5 to 7	
Cl.O=C(O)C[C@@H](c1ccc(Cl)c(F)c1)N(Cc1ccc(OCCN2C(=O)CCC2=O)c(F)c1)CC1CC1	3000	5 to 7	70
Cc1cc(CN(CC(C)C)C(CC(=O)O)c2ccc3c(c2)CCO3)ccc1OCCN1C(=O)CCC1=O (configuration not stated)	3000 (≈ 1530 µg/mL)	5 to 7	
CCCN(Cc1ccc(OCCn2c(=O)ccn(C)c2=O)c(OC)c1)C(CC(=O)O)c1ccc(Cl)cc1 (configuration not stated)	3000 (≈ 1590 µg/mL)	5 to 7	
COc1cc(CN(C2CCC2)C(CC(=O)O)c2ccc(Cl)cc2)ccc1OCCn1c(=O)ccn(C)c1=O (configuration not stated)	3000 (≈ 1630 µg/mL)	5 to 7	
Cc1cc(CN(CC(C)C)C(CC(=O)O)c2ccc(Cl)c(Cl)c2)ccc1OCCN1C(=O)CCC1=O (configuration not stated)	3000 (≈ 1610 µg/mL)	5 to 7	
CCCCN(Cc1ccc(OCCn2c(=O)ccn(C)c2=O)c(OC)c1)C(CC(=O)O)c1ccc2c(c1)CCO2 (configuration not stated)	3000 (≈ 1650 µg/mL)	5 to 7	
COc1cc(CN(CC2CC2)C(CC(=O)O)c2ccc3c(c2)CCO3)ccc1OCCn1c(=O)ccn(C)c1=O (configuration not stated)	3000 (≈ 1650 µg/mL)	5 to 7	
CCN(Cc1ccc(OCCn2c(=O)ccn(C)c2=O)c(C)c1)C(CC(=O)O)c1ccc(Cl)cc1 (configuration not stated)	3000 (≈ 1500 µg/mL)	5 to 7	
CCN(Cc1ccc(OCCN2C(=O)CCC2=O)c(C)c1)C(CC(=O)O)c1ccc(Cl)cc1 (configuration not stated)	3000 (≈ 1420 µg/mL)	5 to 7	
CCCN(Cc1ccc(OCCN2C(=O)CCC2=O)c(C)c1)C(CC(=O)O)c1ccc(Cl)s1.Cl (configuration not stated)	3000	5 to 7	
CCCCN(Cc1ccc(OCCn2c(=O)ccn(C)c2=O)c(OC)c1)C(CC(=O)O)c1ccc(Cl)cc1 (configuration not stated)	3000 (≈ 1630 µg/mL)	5 to 7	
CCCN(Cc1ccc(OCCN2C(=O)CCC2=O)c(C)c1)[C@H](CC(=O)O)c1ccc(Cl)cc1	3000 (≈ 1460 µg/mL)	5 to 7	
Cc1cc(CN(CC2CC2)C(CC(=O)O)c2ccc(Cl)cc2)ccc1OCCN1C(=O)CCC1=O (configuration not stated)	3000 (≈ 1500 µg/mL)	5 to 7	
Cc1cc(CN(Cc2ccc(F)cc2)C(CC(=O)O)c2ccc(Cl)cc2)ccc1OCCN1C(=O)CCC1=O.Cl (configuration not stated)	3000	5 to 7	
COc1cc(CN(CC(C)C)C(CC(=O)O)c2ccc(Cl)cc2Cl)ccc1OCCN1C(=O)CCC1=O (configuration not stated)	3000 (≈ 1650 µg/mL)	5 to 7	
CCCN(Cc1ccc(OCCN2C(=O)CCC2=O)c(OC)c1)C(c1ccc(Cl)cc1)C(C)C(=O)O (configuration not stated)	3000 (≈ 1550 µg/mL)	5 to 7	
Cc1cc(CN(CC(C)C)[C@@H](CC(=O)O)c2ccc(Cl)cc2)ccc1OCCN1C(=O)CCC1=O	3000 (≈ 1500 µg/mL)	5 to 7	
